A short description of the data set: Aqueous solubility of apixaban. It counts as physicochemical. As to conditions: aqueous medium, aqueous buffer; room temperature, pH 6.8.

As usually defined, the solubility is how much of the substance goes into solution per volume. A high value points to much dissolved substance. On to `COc1ccc(-n2nc(C(N)=O)c3c2C(=O)N(c2ccc(N4CCCCC4=O)cc2)CC3)cc1` [apixaban, 1-(4-methoxyphenyl)-7-oxo-6-[4-(2-oxopiperidin-1-yl)phenyl]-4,5,6,7-tetrahydro-1H-pyrazolo[3.4-c]pyridine-3-carboxamide], for which the solubility is under 1 µg/mL.

The values above are taken from patent US20170202826A1, “DOSAGE FORMS OF APIXABAN” (Pfizer Inc., priority 2009, published 2017).
